Test results: patent US9969742B2, “Imidazotriazinone compounds” (Ironwood Pharmaceuticals, Inc., priority 2012, dated 2018)

target: T1, PDE9A2 (Homo sapiens, UniProt O76083); assay: Phosphodiesterase enzyme screening assay, PDE9A2; type: biochemical; details: 4.0 μM cGMP substrate, 1 hour at R.T.; read-out: Band (PDE9A2 IC50)
T1 construct: purchased Reaction Biology Corporation, Malvern, Pa
Text: Compounds of the invention were screened against PDE1A, PDE1B, PDE2A, PDE3A, PDE3B, PDE4A1A, PDE4B1, PDE4D3, PDE5A1, PDE6C, PDE7A, PDE8A1, PDE9A2, PDE10A2 AND PDE11A isoforms of the phosphodiesterase enzyme to determine activity and overall selectivity through comparative analysis. […] Where 8-methoxy-IBMX and Zaprinast were used as reference inhibitors.
The phosphodiesterase enzyme isoforms were obtained from a commercial retailer (Reaction Biology Corporation, Malvern, Pa.) for use in the instant screening assay.
The analysis was completed using the Caliper LabChip 3000 and a 12-sipper LabChip. LabChip assays are separations-based, meaning that the product and substrate are electrophoretically separated, thereby minimizing interferences and yielding the highest data quality available on any screening platform. […] High Z′ values, few false positives, few false negatives and analytical quality reproducibility are the reasons cited for the increasing reliance on the LabChip assays.
The off-chip incubation mobility-shift phosphodiesterase assay uses a microfluidic chip to measure the conversion of a fluorescent cyclic AMP substrate to a 5′-AMP product, or a cyclic GMP substrate to a 5′-GMP product. The reaction mixture, from a microtiter plate well, is introduced through a capillary sipper onto the chip, where the fluorescent substrate and product are separated by electrophoresis and detected via laser-induced fluorescence. […] The precision of microfluidics allows researchers to detect subtle interactions between drug candidates and therapeutic targets.
Reactions were carried out in 100 mM HEPES (pH 7.5), 5 mM MgCl2, 1 mM DTT, 0.003% Brij, 4.0 μM cGMP substrate. The reaction was started by addition of cGMP or cAMP and incubated for 1 hour at R.T. The reaction was terminated by the addition of stop buffer containing 100 mM HEPES (pH 7.5), 15 mM EDTA, 0.015% Brij-35, 5% DMSO. Cyclic AMP/GMP substrate and 5′-AMP/5′-GMP product were separated by charge using electrophoretic mobility shift. Product formed was compared to control wells to determine inhibition or enhancement of enzyme activity.
Data points were averages of quadruplicate wells and error bars represented the SEM for each point.

T1 sequence (O76083 1-533 isoform O76083-2): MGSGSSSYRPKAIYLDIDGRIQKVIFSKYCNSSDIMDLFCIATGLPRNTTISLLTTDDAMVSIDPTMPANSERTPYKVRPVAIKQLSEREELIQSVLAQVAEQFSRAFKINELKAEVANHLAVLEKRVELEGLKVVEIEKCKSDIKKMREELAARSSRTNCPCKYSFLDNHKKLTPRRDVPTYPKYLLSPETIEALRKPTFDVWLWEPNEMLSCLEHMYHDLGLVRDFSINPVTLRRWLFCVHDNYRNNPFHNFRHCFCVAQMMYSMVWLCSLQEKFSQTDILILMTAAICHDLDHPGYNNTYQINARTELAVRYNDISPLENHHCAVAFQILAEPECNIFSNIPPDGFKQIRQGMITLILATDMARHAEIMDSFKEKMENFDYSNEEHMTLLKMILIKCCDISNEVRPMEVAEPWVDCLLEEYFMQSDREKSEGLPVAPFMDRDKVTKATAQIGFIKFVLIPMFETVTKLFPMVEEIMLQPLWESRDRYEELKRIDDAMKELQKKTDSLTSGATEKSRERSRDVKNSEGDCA

IC50 [nM]	SMILES
< 1000	CC1CN(Cc2nc3ccccn3n2)CC1c1nn2c(-c3ccccc3C(F)(F)F)ncc2c(=O)[nH]1 (single isomer, unassigned; (+)) [(+)-2-((3,4-trans)-1-([1,2,4]triazolo[1,5-a]pyridin-2-ylmethyl)-4-methylpyrrolidin-3-yl)-7-(2-(trifluoromethyl)phenyl)imidazo[5,1-f][1,2,4]triazin-4(3H)-one]
< 1000	CC1CN(Cc2nc3ccccn3n2)CC1c1nn2c(-c3ccccc3F)ncc2c(=O)[nH]1 (single isomer, unassigned; (+)) [(+)-2-((3,4-trans)-1-([1,2,4]triazolo[1,5-a]pyridin-2-ylmethyl)-4-methylpyrrolidin-3-yl)-7-(2-fluorophenyl)imidazo[5,1-f][1,2,4]triazin-4(3H)-one]
< 1000	Cc1cnccc1-c1ncc2c(=O)[nH]c(C3CN(Cc4nc5ccccn5n4)CC3C)nn12 (single isomer, unassigned; (+)) [(+)-2-((3,4-trans)-1-([1,2,4]triazolo[1,5-a]pyridin-2-ylmethyl)-4-methylpyrrolidin-3-yl)-7-(3-methylpyridin-4-yl)imidazo[5,1-f][1,2,4]triazin-4(3H)-one]

Continued, molecule first:

SMILES	IC50 [nM]
CC1CN(Cc2ccc(F)cc2)CC1c1nn2c(-c3ccccc3C(F)(F)F)ncc2c(=O)[nH]1 (single isomer, unassigned; (+))	< 1000
CC1CN(Cc2ccccc2)CC1c1nn2c(-c3ccccc3C(F)(F)F)ncc2c(=O)[nH]1 (single isomer, unassigned; (+))	< 1000
CC1CN(Cc2ncccn2)CC1c1nn2c(-c3ccccc3C(F)(F)F)ncc2c(=O)[nH]1 (single isomer, unassigned; (+))	< 1000
Cc1cnccc1-c1ncc2c(=O)[nH]c(C3CN(Cc4ccc(F)cc4)CC3C)nn12 (single isomer, unassigned; (+)) [(+)-2-((3,4-trans)-1-(4-fluorobenzyl)-4-methylpyrrolidin-3-yl)-7-(3-methylpyridin-4-yl) imidazo [5,1-f] [1,2,4] triazin-4 (3H)-one]	< 1000

same assay, conditions: Table 1; 10 concentrations; 4.0 μM cGMP substrate; 1 hour at R.T.; read-out: Band (PDE9A2 IC50)

IC50 [nM]	SMILES
< 1000	Cc1cnc(CN2C[C@@H](C)[C@H](c3nn4c(C5CCOCC5)ncc4c(=O)[nH]3)C2)cn1 (relative stereo) [(+)-2-((3,4-trans)-4-methyl-1-((5-methylpyrazin-2-yl)methyl)pyrrolidin-3-yl)-7-(tetrahydro-2H-pyran-4-yl)imidazo[5,1-f][1,2,4]triazin-4(3H)-one]
1000 to 10000	Cc1ccc(Cl)cc1-c1ncc2c(=O)[nH]c([C@@H]3CNC[C@H]3C)nn12 (relative stereo) [(−)-7-(5-chloro-2-methylphenyl)-2-((3,4-trans)-4-methylpyrrolidin-3-yl)imidazo[5,1-f][1,2,4]triazin-4(3H)-one]
< 1000	CC1CN(S(=O)(=O)c2cccc(F)c2)CC1c1nn2c(C3CCOCC3)ncc2c(=O)[nH]1 (single isomer, unassigned; (+)) [(+)-2-((3,4-trans)-1-((3-fluorophenyl)sulfonyl)-4-methylpyrrolidin-3-yl)-7-(tetrahydro-2H-pyran-4-yl)imidazo[5,1-f][1,2,4]triazin-4(3H)-one]
< 1000	CC1CN(S(=O)(=O)c2ccc(F)cc2)CC1c1nn2c(C3CCOCC3)ncc2c(=O)[nH]1 (single isomer, unassigned; (+)) [(+)-2-((3,4-trans)-1-((4-fluorophenyl)sulfonyl)-4-methylpyrrolidin-3-yl)-7-(tetrahydro-2H-pyran-4-yl)imidazo[5,1-f][1,2,4]triazin-4(3H)-one]

The next lines start with the molecule.

SMILES	IC50 [nM]
CC1CN(Cc2ccccc2)CC1c1nn2c(C3CCN(C)CC3)ncc2c(=O)[nH]1 (single isomer, unassigned) [2-((3,4-trans)-1-benzyl-4-methylpyrrolidin-3-yl)-7-(1-methylpiperidin-4-yl)imidazo[5,1-f][1,2,4]triazin-4(3H)-one]	1000 to 10000
CC1CN(C(C)c2ccccc2)CC1c1nn2c(C3CCOCC3)ncc2c(=O)[nH]1 (single isomer, unassigned; (+)) [listing 1 of 2 here]	1000 to 10000
CC1CN(C(C)c2ccccc2)CC1c1nn2c(C3CCOCC3)ncc2c(=O)[nH]1 (single isomer, unassigned; (+)) [listing 2 of 2 here]	< 1000
CC1CN(C(=O)c2ccc(F)cc2)CC1c1nn2c(C3CCOCC3)ncc2c(=O)[nH]1 (single isomer, unassigned; (+)) [(+)-2-((3,4-trans)-1-(4-fluorobenzoyl)-4-methylpyrrolidin-3-yl)-7-(tetrahydro-2H-pyran-4-yl)imidazo[5,1-f][1,2,4]triazin-4(3H)-one]	1000 to 10000
CC1CN(S(=O)(=O)c2ccccc2F)CC1c1nn2c(C3CCOCC3)ncc2c(=O)[nH]1 (single isomer, unassigned; (+)) [(+)-2-((3,4-trans)-1-((2-fluorophenyl)sulfonyl)-4-methylpyrrolidin-3-yl)-7-(tetrahydro-2H-pyran-4-yl)imidazo[5,1-f][1,2,4]triazin-4(3H)-one]	< 1000

same assay, conditions: Table 2; 10 concentrations; 4.0 μM cGMP substrate; 1 hour at R.T.; read-out: Band (PDE9A2 IC50)

IC50 [nM]	SMILES
< 1000	CC1CN(Cc2nc(C(F)(F)F)cc(C(F)(F)F)n2)CC1c1nn2c(C3CCOCC3)ncc2c(=O)[nH]1 (single isomer, unassigned; (+)) [(+)-2-((3,4-trans)-1-((4,6-bis(trifluoromethyl)pyrimidin-2-yl)methyl)-4-methylpyrrolidin-3-yl)-7-(tetrahydro-2H-pyran-4-yl)imidazo[5,1-f][1,2,4]triazin-4(3H)-one]
< 1000	CC1CN(Cc2ncc(F)c(N3CCOCC3)n2)CC1c1nn2c(C3CCOCC3)ncc2c(=O)[nH]1 (single isomer, unassigned; (+)) [(+)-2-((3,4-trans)-1-((5-fluoro-4-morpholinopyrimidin-2-yl)methyl)-4-methylpyrrolidin-3-yl)-7-(tetrahydro-2H-pyran-4-yl)imidazo[5,1-f][1,2,4]triazin-4(3H)-one]

same assay, conditions: read-out: Band (PDE9A2 IC50)

IC50 [nM]	SMILES
< 1000	CC1CN(CC2CCNCC2)CC1c1nn2c(C3CCOCC3)ncc2c(=O)[nH]1 (single isomer, unassigned; (+))
1000 to 10000	CC1CN(Cc2ccc(Cl)cc2)CC1c1nn2c(-c3cccc(F)c3)ncc2c(=O)[nH]1 (single isomer, unassigned; (+)) [(+)-2-((3,4-trans)-1-(4-chlorobenzyl)-4-methylpyrrolidin-3-yl)-7-(3-fluorophenyl)imidazo[5,1-f][1,2,4]triazin-4(3H)-one]
< 1000	Cc1ccncc1-c1ncc2c(=O)[nH]c(C3CN(Cc4ccc(F)cc4)CC3C)nn12 (single isomer, unassigned; (+)) [(+)-2-((3,4-trans)-1-(4-fluorobenzyl)-4-methylpyrrolidin-3-yl)-7-(4-methylpyridin-3-yl)imidazo[5,1-f][1,2,4]triazin-4(3H)-one]
< 1000	CC1CN(Cc2nc3ccccc3[nH]2)CC1c1nn2c(-c3ccc(F)cc3)ncc2c(=O)[nH]1 (single isomer, unassigned; (+)) [(+)-2-((3,4-trans)-1-((1H-benzo[d]imidazol-2-yl)methyl)-4-methylpyrrolidin-3-yl)-7-(4-fluorophenyl)imidazo[5,1-f][1,2,4]triazin-4(3H)-one]
< 1000	CC1CN(Cc2nc3ccccn3n2)CC1c1nn2c(-c3ccccc3)ncc2c(=O)[nH]1 (single isomer, unassigned; (+)) [(+)-2-((3,4-trans)-1-([1,2,4]triazolo[1,5-a]pyridin-2-ylmethyl)-4-methylpyrrolidin-3-yl)-7-phenylimidazo[5,1-f][1,2,4]triazin-4(3H)-one]
